The values below are quoted from earlier work in patent US12527793B2, “Pharmaceutical compositions” (Shenzhen Pharmacin Co., Ltd., priority 2020, dated 2026).

Where two headings read alike, the source gives them in different places.

For data set [1] the following is noted: background statement.
[2] abbreviates: source footnote 1: Pallicer et al., ADMET & DMPK 2(2) (2014) 107-114.
Setting [3] is: source footnote 5: experimental values listed on www.drugbank.ca.

`O=c1cc(-c2ccc(O)cc2)oc2cc(O)cc(O)c12` [Apigenin]: the “Experimental log P” value under setting [2] is listed as 3.02^1.
Regarding `CN(C)CCC(c1ccc(Br)cc1)c1ccccn1` (stereo not shown) [Brompheniramine], under setting [2], the “Experimental log P” value is listed as 2.88^1.
In the case of `CCCCN1CCCCC1C(=O)Nc1c(C)cccc1C` (stereo not shown) [Bupivacaine], under setting [2], the “Experimental log P” value is reported as 3.41^1.
For `Cc1ccc(-c2cc(C(F)(F)F)nn2-c2ccc(S(N)(=O)=O)cc2)cc1` [Celecoxib], the “Experimental log P” value under setting [2] is on record as 3.91^1.
For `CN(C)CCC(c1ccc(Cl)cc1)c1ccccn1` (stereo not shown) [Chlorphenamine], under setting [2], the “Experimental log P” value was 3.17^1.
For the molecule `CN(C)CCCN1c2ccccc2Sc2ccc(Cl)cc21` [Chlorpromazine], under setting [2], the “Experimental log P” value is reported as 5.27^1.
In the case of `O=c1cc(-c2ccccc2)oc2cc(O)cc(O)c12` [Chrysin], under setting [2], the “Experimental log P” value is given as 3.52^1.
For `C=C[C@H]1CN2CC[C@H]1C[C@H]2[C@H](O)c1ccnc2ccccc12` [Cinchonidine], under setting [2], the “Experimental log P” value is 2.6^1.
In the case of `CC(C)/N=c1\cc2n(-c3ccc(Cl)cc3)c3ccccc3nc-2cc1Nc1ccc(Cl)cc1` [Clofazimine], the “Experimental log P” value under setting [2] was 6.3^1.
As for `CC(C)(Oc1ccc(Cl)cc1)C(=O)O` [Clofibric acid], under setting [2], the “Experimental log P” value is 2.57^1.
Take `COC(=O)[C@H](c1ccccc1Cl)N1CCc2sccc2C1` [Clopidogrel]: under setting [2], the “Experimental log P” value is 4.52^1.
Regarding `CCc1cc2c(s1)N(C)C(=O)CN=C2c1ccccc1Cl` [Clotiazepam], the “Experimental log P” value under setting [2] was 3.49^1.
For `COc1ccc([C@@H]2Sc3ccccc3N(CCN(C)C)C(=O)[C@@H]2OC(C)=O)cc1` [Diltiazem], under setting [2], the “Experimental log P” value is given as 2.84^1.
Consider `CNCC[C@H](Oc1cccc2ccccc12)c1cccs1` [Duloxetine], for which the “Experimental log P” value under setting [2] is recorded as 4.54^1.
For the molecule `O=C(O)CCC(=O)c1ccc(-c2ccccc2)cc1` [Fenbufen], the “Experimental log P” value under setting [2] is given as 3.2^1.
With `O=C(O)c1ccccc1Nc1cccc(C(F)(F)F)c1` [Flufenamic acid], under setting [2], the “Experimental log P” value is reported as 5.19^1.
In the case of `CNCCC(Oc1ccc(C(F)(F)F)cc1)c1ccccc1` (stereo not shown) [Fluoxetine], the “Experimental log P” value under setting [2] is reported as 4.42^1.
As to `CCN(CC)CCN1C(=O)CN=C(c2ccccc2F)c2cc(Cl)ccc21` [Flurazepam], the “Experimental log P” value under setting [2] is reported as 3.94^1.
For `CC(C(=O)O)c1ccc(-c2ccccc2)c(F)c1` (stereo not shown) [Flurbiprofen], under setting [2], the “Experimental log P” value is 3.84^1.
As for `CCC1=C(C)CN(C(=O)NCCc2ccc(S(=O)(=O)NC(=O)N[C@H]3CC[C@H](C)CC3)cc2)C1=O` [Glimepiride], under setting [2], the “Experimental log P” value is 3.97^1.
As for `O=C(CCCN1CCC(O)(c2ccc(Cl)cc2)CC1)c1ccc(F)cc1` [Haloperidol], the “Experimental log P” value under setting [2] is given as 3.82^1.
On to `COc1ccc([C@@H]2CC(=O)c3c(O)cc(O)cc3O2)cc1O` [Hesperetin], for which the “Experimental log P” value under setting [2] was 2.60^1.
Consider `C=CC(=O)N1CCC[C@@H](n2nc(-c3ccc(Oc4ccccc4)cc3)c3c(N)ncnc32)C1` [Ibrutinib], for which, under setting [3], the “Experimental log P” value is 3.97 ^5.
With `COc1ccc2c(c1)c(CC(=O)O)c(C)n2C(=O)c1ccc(Cl)cc1` [Indometacin], under setting [2], the “Experimental log P” value is listed as 4.1^1.
With `O=C1C[C@@H](c2ccc(O)cc2)Oc2cc(O)cc(O)c21` [Naringenin], under setting [2], the “Experimental log P” value is reported as 2.52^1.
`Cc1cn(-c2cc(NC(=O)c3ccc(C)c(Nc4nccc(-c5cccnc5)n4)c3)cc(C(F)(F)F)c2)cn1` [Nilotinib, 4-methyl-N-[3-(4-methyl-1H-imidazol-1-yl)-5-(trifluoromethyl)phenyl]-3-{[4-(pyridin-3-yl)pyrimidin-2-yl]amino}benzamide]: the Solubility in water entry in data set [1] is “practically insoluble”.
With `OCCOCCN1CCN(C2=Nc3ccccc3Sc3ccccc32)CC1` [Quetiapine], under setting [2], the “Experimental log P” value is on record as 3.13^1.
With `C=C[C@H]1C[N@@]2CC[C@H]1C[C@H]2[C@H](O)c1ccnc2ccc(OC)cc12` [Quinine], the “Experimental log P” value under setting [2] is reported as 2.64^1.
With `CN(CCOc1ccc(CC2SC(=O)NC2=O)cc1)c1ccccn1` (stereo not shown) [Rosiglitazone], the “Experimental log P” value under setting [2] is given as 3.1^1.
For `CN[C@H]1CC[C@@H](c2ccc(Cl)c(Cl)c2)c2ccccc21` [Sertraline], the “Experimental log P” value under setting [2] is given as 5.17^1.
`COc1cccc(C2(O)CCCCC2CN(C)C)c1` (stereo not shown) [Tramadol]: the “Experimental log P” value under setting [2] is listed as 2.7^1.
Turning to `O=c1n(CCCN2CCN(c3cccc(Cl)c3)CC2)nc2ccccn12` [Trazodone], under setting [2], the “Experimental log P” value is 2.82^1.
As for `COc1ccc(C(CN(C)C)C2(O)CCCCC2)cc1` (stereo not shown) [Venlafaxine], under setting [2], the “Experimental log P” value was 3.05^1.
With `C[C@@H](Oc1cc(-c2cnn(C3CCNCC3)c2)cnc1N)c1c(Cl)ccc(F)c1Cl` [crizotinib], the “Experimental log P” value under setting [3] is listed as 1.83 ^5.
Turning to `Cc1nc(Nc2ncc(C(=O)Nc3c(C)cccc3Cl)s2)cc(N2CCN(CCO)CC2)n1` [dasatinib], the “Experimental log P” value under setting [3] is reported as 1.8 ^5.
On to `CS(=O)(=O)CCNCc1ccc(-c2ccc3ncnc(Nc4ccc(OCc5cccc(F)c5)c(Cl)c4)c3c2)o1` [lapatinib], for which, under setting [3], the “Experimental log P” value was 5.4 ^5.
As to `CO[C@@H]1[C@H](N(C)C(=O)c2ccccc2)C[C@H]2O[C@]1(C)n1c3ccccc3c3c4c(c5c6ccccc6n2c5c31)C(=O)NC4` [midostaurin], the “Experimental log P” value under setting [3] was 5.89 ^5.
On to `COC(=O)c1ccc2c(c1)NC(=O)/C2=C(\Nc1ccc(N(C)C(=O)CN2CCN(C)CC2)cc1)c1ccccc1` [nintedanib], for which the “Experimental log P” value under setting [3] was 3.0 ^5.
As for `CNC(=O)c1cc(Oc2ccc(NC(=O)Nc3ccc(Cl)c(C(F)(F)F)c3)cc2)ccn1` [sorafenib], the “Experimental log P” value under setting [3] is on record as 3.8 ^5.
Regarding `CCCS(=O)(=O)Nc1ccc(F)c(C(=O)c2c[nH]c3ncc(-c4ccc(Cl)cc4)cc23)c1F` [vemurafenib], under setting [3], the “Experimental log P” value is recorded as 5.1 ^5.
